Experimental data taken from US9932637B2, “Genetic polymorphisms associated with cardiovascular disorders and drug response, methods of detection and uses thereof” (CELERA CORPORATION, priority 2003, dated 2018).
“And” between values parts separate entries of the source, which are not always exact repeats. Identical values can stand only once.

Tested on: patients with prior myocardial infarction (CARE study)
Experiment: CARE aligned analysis (prospective and case/control design, white males): association of genotypes with pravastatin efficacy (Tables 13, 15)
Format: in vivo, human
Experimental: The data presented in Table 8 based on an association of genotypes with pravastatin efficacy of the CARE samples were further analyzed and presented in Table 13. The further analysis was performed to align the data obtained from the analysis of the CARE samples, which was a prospective study, to the analysis of the WOSCOP samples, which was a case/control study. Table 13 also presents an analysis of the association of genotypes with pravastatin efficacy in the WOSCOPs samples. Relative to the analysis performed on the data presented in Table 8, there are two significant differences to determine if the SNP influenced pravastatin efficacy. Data obtained from the CARE samples were separated by study design into two groups, those in the prospective study design group and those in the case/control study design group. The original care study contained 16 protocol defined cardiovascular disease defined endpoints and 150 other phenotypes. […] The control groups used to compare the data were also divided into two groups, the “all possible” control group and the “cleaner” control group. […] Because the participants in the WOSCOPs trial were all white males, only data obtained from white males in the CARE study were analysed. Data from the “all possible” and “cleaner” controls were compared to data obtained from the cases in the prospective study design while only data from “cleaner” controls were compared to cases in the case/control study design. The data from the case/control cohorts were analysed using conditional logistic regression (as opposed to logistic regression used for the original anaylsis).
The anaylsis was refined as described for both Tables 13 and 14.

[1] = A2M hCV517658, CARE Case/Control, F&NF MI
[2] = ABCA1 hCV2741051, CARE Case/Control, F&NF MI
[3] = ABCA1 hCV2741051, CARE Prospective, F&NF MI
[4] = ABCA1 hCV2741083, CARE Prospective, F&NF MI
[5] = ADAM12 hCV25928135, CARE Case/Control, F&NF MI
[6] = AGTR1 hCV3187716, CARE, Case/Control, F MI/SD/NF MI
[7] = AGTR1 hCV3187716, CARE, Prospective, F MI/SD/NF MI
[8] = ALOX12 hCV1552894, CARE Prospective, F&NF MI
[9] = ALOX12 hCV1552900, CARE Prospective, F&NF MI
[10] = ASAH1 hCV2442143, CARE, Prospective, F MI/SD/NF MI
[11] = C14orf159 hCV25472345, CARE Case/Control, F&NF MI
[12] = C14orf159 hCV25472345, CARE Prospective, F&NF MI
[13] = CAPG hCV15851292, CARE, Case/Control, F MI/SD/NF MI
[14] = CAPN10 hCV25614016, CARE, Case/Control, F MI/SD/NF MI, listed as Pravastatin
[15] = CAPN10 hCV25614016, CARE, Prospective, F MI/SD/NF MI

## CC[C@H](C)C(=O)O[C@H]1C[C@H](O)C=C2C=C[C@H](C)[C@H](CC[C@@H](O)C[C@@H](O)CC(=O)O)[C@H]21 [pravastatin]
[1]
  2 Rare Alleles (%), Pravastatin Patients: (7.6%)
  2 Rare Alleles n/total, Pravastatin Patients: 11/144 and 11/101
  Pravastatin vs placebo odds ratio, 0 rare alleles: 0.55 and 0.53
  Pravastatin vs placebo odds ratio, 1 rare allele: 1.04 and 0.93
  Pravastatin vs placebo odds ratio, 2 rare alleles: 0.47 and 0.38
[2]
  2 Rare Alleles n/total, Pravastatin Patients: 12/93 and 12/64
  Pravastatin vs placebo odds ratio, 0 rare alleles: 0.55 and 0.52
  Pravastatin vs placebo odds ratio, 1 rare allele: 0.98 and 0.82
  Pravastatin vs placebo odds ratio, 2 rare alleles: 1.71 and 1.81
[3]
  2 Rare Alleles n/total, Pravastatin Patients: 12/94 and 12/65
  Pravastatin vs placebo odds ratio, 0 rare alleles: 0.55 and 0.52
  Pravastatin vs placebo odds ratio, 1 rare allele: 0.99 and 0.83
  Pravastatin vs placebo odds ratio, 2 rare alleles: 1.80 and 1.81
ABCA1 hCV2741083, CARE Case/Control, F&NF MI
  2 Rare Alleles n/total, Pravastatin Patients: 4/22 and 4/18
[4]
  2 Rare Alleles n/total, Pravastatin Patients: 4/23 and 4/19
  Pravastatin vs placebo odds ratio, 0 rare alleles: 0.63
  Pravastatin vs placebo odds ratio, 1 rare allele: 1.52
  Pravastatin vs placebo odds ratio, 2 rare alleles: 2.74
ABCA1 hCV2741083, Patients with 0 Rare Alleles, CARE Case/Control, F MI/SD/NF MI
  Pravastatin vs. Placebo Odds Ratio: 0.60
ABCA1 hCV2741083, Patients with 0 Rare Alleles, CARE Prospective, F MI/SD/NF MI
  Pravastatin vs. Placebo Odds Ratio: 0.59
ABCA1 hCV2741083, Patients with 1 Rare Allele, CARE Case/Control, F MI/SD/NF MI
  Pravastatin vs. Placebo Odds Ratio: 1.53
ABCA1 hCV2741083, Patients with 1 Rare Allele, CARE Prospective, F MI/SD/NF MI
  Pravastatin vs. Placebo Odds Ratio: 1.61
ABCA1 hCV2741083, Patients with 2 Rare Alleles, CARE Case/Control, F MI/SD/NF MI
  Pravastatin vs. Placebo Odds Ratio: 0.71
ABCA1 hCV2741083, Patients with 2 Rare Alleles, CARE Prospective, F MI/SD/NF MI
  Pravastatin vs. Placebo Odds Ratio: 0.53
[5]
  2 Rare Alleles (%), Pravastatin Patients: (17.1%)
  2 Rare Alleles n/total, Pravastatin Patients: 7/58 and 7/41
  Pravastatin vs placebo odds ratio, 2 rare alleles: 0.47 and 0.37
ADAMTS1 hCV529706, Patients with 0 Rare Alleles, CARE Case/Control, F MI/SD/NF MI
  Pravastatin vs. Placebo Odds Ratio: 0.91
ADAMTS1 hCV529706, Patients with 1 Rare Allele, CARE Case/Control, F MI/SD/NF MI
  Pravastatin vs. Placebo Odds Ratio: 0.64
ADAMTS1 hCV529706, Patients with 2 Rare Alleles, CARE Case/Control, F MI/SD/NF MI
  Pravastatin vs. Placebo Odds Ratio: 0.20
ADAMTS1 hCV529710, Patients with 0 Rare Alleles, CARE Case/Control, F MI/SD/NF MI
  Pravastatin vs. Placebo Odds Ratio: 0.91
ADAMTS1 hCV529710, Patients with 1 Rare Allele, CARE Case/Control, F MI/SD/NF MI
  Pravastatin vs. Placebo Odds Ratio: 0.63
ADAMTS1 hCV529710, Patients with 2 Rare Alleles, CARE Case/Control, F MI/SD/NF MI
  Pravastatin vs. Placebo Odds Ratio: 0.20
[6]
  2 rare alleles n/total (%), pravastatin patients: (7.5%)
  Pravastatin vs placebo odds ratio, 0 rare alleles: 0.65
  Pravastatin vs placebo odds ratio, 1 rare allele: 1.03
  Pravastatin vs placebo odds ratio, 2 rare alleles: 0.26
[7]
  2 rare alleles n/total (%), pravastatin patients: (7.2%)
  Pravastatin vs placebo odds ratio, 0 rare alleles: 0.65
  Pravastatin vs placebo odds ratio, 1 rare allele: 1.02
  Pravastatin vs placebo odds ratio, 2 rare alleles: 0.23
AGTR1 hCV3187716, Patients with 0 Rare Alleles, CARE Prospective, F MI/SD/NF MI
  Pravastatin vs. Placebo Odds Ratio: 0.70
AGTR1 hCV3187716, Patients with 1 Rare Allele, CARE Prospective, F MI/SD/NF MI
  Pravastatin vs. Placebo Odds Ratio: 1.18
AGTR1 hCV3187716, Patients with 2 Rare Alleles, CARE Prospective, F MI/SD/NF MI
  Pravastatin vs. Placebo Odds Ratio: 0.27
[8]
  2 Rare Alleles (%), Pravastatin Patients: (7.6%)
  2 Rare Alleles n/total, Pravastatin Patients: 15/198
  Pravastatin vs placebo odds ratio, 2 rare alleles: 0.38
[9]
  2 Rare Alleles (%), Pravastatin Patients: (7.6%)
  2 Rare Alleles n/total, Pravastatin Patients: 15/198
  Pravastatin vs placebo odds ratio, 2 rare alleles: 0.38
[10]
  2 rare alleles n/total (%), pravastatin patients: (13.2%)
  Pravastatin vs placebo odds ratio, 0 rare alleles: 0.42
  Pravastatin vs placebo odds ratio, 1 rare allele: 0.78
  Pravastatin vs placebo odds ratio, 2 rare alleles: 1.16
[11]
  2 Rare Alleles (%), Pravastatin Patients: (5.0%)
  2 Rare Alleles n/total, Pravastatin Patients: 7/140
  Pravastatin vs placebo odds ratio, 2 rare alleles: 0.30
[12]
  2 Rare Alleles (%), Pravastatin Patients: (5.0%)
  2 Rare Alleles n/total, Pravastatin Patients: 7/140
  Pravastatin vs placebo odds ratio, 2 rare alleles: 0.30
[13]
  2 rare alleles n/total (%), pravastatin patients: (21.4%)
  Pravastatin vs placebo odds ratio, 0 rare alleles: 0.81
  Pravastatin vs placebo odds ratio, 1 rare allele: 0.37
  Pravastatin vs placebo odds ratio, 2 rare alleles: 5.35
CAPN10 hCV25614016, CARE, Case/Control, F MI/SD/NF MI
  Pravastatin vs placebo odds ratio, 2 rare alleles: 0.90
[14]
  Pravastatin vs placebo odds ratio, 0 rare alleles: 0.62 and 0.56
  Pravastatin vs placebo odds ratio, 1 rare allele: 1.58 and 1.43
  Pravastatin vs placebo odds ratio, 2 rare alleles: 1.07
[15]
  2 rare alleles n/total (%), pravastatin patients: (9.1%)
  Pravastatin vs placebo odds ratio, 0 rare alleles: 0.63 and 0.56
  Pravastatin vs placebo odds ratio, 1 rare allele: 1.60 and 1.42
